# Assay results: patent publication US20260272915A1, “PHARMACEUTICAL COMPOSITION FOR TREATING, PREVENTING, OR MANAGING BILIRUBIN-INDUCED NEUROLOGICAL DYSFUNCTION, PSYCHIATRIC DISORDERS ASSOCIATED WITH JAUNDICE, OR PSYCHIATRIC DISORDERS CAUSED BY BILIRUBIN UDP-GLUCURONOSYLTRANSFERASE GENE MUTATIONS” (priority 2023, published 2026)
# Columns and labels:
# Format in all cases: in vivo, rat
# [1] = test system: jaundice model rats (Gunn rats); test: Open field test; settings: for Effect on number of grooming behaviors of Gunn rats (in words) / Effect on number of rearing behaviors of Gunn rats (in words) / Effect on spontaneous activity amount of Gunn rats (in words): compared with normal (Wistar) rats; for Spontaneous Activity Amount, Average / Number of Rearing Behaviors, Average / Number of Grooming Behaviors, Average: Gunn rats (j/j)
# Protocol: Eltoprazine (E1357, TCI), which is one of the 5-HT1A/1B receptor agonists, was dissolved in an arbitrary solvent. 0.3 mg/kg of eltoprazine was subcutaneously administered to jaundice model rats (Gunn rats) at 9 to 10 weeks of age. Further, as control groups, only a solvent was subcutaneously administered to Gunn rats and Wistar rats at 9 to 10 weeks of age. Further, as a comparison group, 8OH-DPAT (O415005, FUJIFILM Wako Pure Chemical Corporation), which is one of 5-HT1A receptor agonists, was dissolved in an arbitrary solvent, and 1 mg/kg thereof was subcutaneously administered to Gunn rats. After placing each rat in its home cage for 60 minutes, an open field test was conducted for 60 minutes using the Scanet MV-40 (Melquest Ltd.). The spontaneous activity amount and the number of rearing behaviors were measured for each rat by counting how many times the rat crossed the center evenly spaced. The number of grooming behaviors was counted by visual inspection.
# Eltoprazine (E1357, TCI), which is one of the 5-HT1A/1B receptor agonists, was dissolved in an arbitrary solvent. 0.3 mg/kg of eltoprazine was subcutaneously administered to jaundice model rats (Gunn rats) at 9 to 10 weeks of age. Further, as control groups, only a solvent was subcutaneously administered to Gunn rats and Wistar rats at 9 to 10 weeks of age. Further, as a comparison group, CGS12066A (Sigma-Aldrich Co. LLC), which is one of 5-HT1B receptor agonists, was dissolved in an arbitrary solvent, and 1 mg/kg thereof was subcutaneously administered to Gunn rats. After placing each rat in its home cage for 60 minutes, an open field test was conducted for 60 minutes using the Scanet MV-40 (Melquest Ltd.). The spontaneous activity amount and the number of rearing behaviors for each rat were measured by counting how many times the rat crossed the center evenly spaced. The number of grooming behaviors was counted by visual inspection.
# Gunn rats [2] = test: Startle response prepulse inhibition (PPI) test; settings: 0.3 mg/kg subcutaneous, 80 dB prepulse
# Protocol: Eltoprazine (E1357, TCI), which is one of 5-HT1A/1B receptor agonists, was dissolved in a physiological saline solution. Only a solvent, 0.3 mg/kg of eltoprazine, or 1 mg/kg of eltoprazine was administered subcutaneously to Gunn rats at 9 to 10 weeks of age. For control, only a solvent was administered to Wistar rats as normal rats. One hour after the administration, a startle response prepulse inhibition (PPI) test was performed. The PPI test was conducted using the SR-LAB-Startle Response System (San Diego Institute, USA). Each rat subjected to the measurement was placed in a measurement chamber and acclimated with a 65 dB background white noise for 5 minutes before the start of stimulation. The startle response to a 120 dB auditory stimulation was measured using a piezoelectric sensor attached to the bottom of the chamber. The test session consisted of a total of 50 randomized trials, including no-stimulus (white noise only), 20 ms of 120 dB pulse stimulation, and stimulation with 20 ms of 70 dB or 80 dB prepulse 100 ms before the 120 dB pulse. The interval between the trials was 20 to 60 seconds (average: 40 seconds). The percentage PPI was calculated using the following formula: 100−[(startle response to prepulse-pulse stimulation trial−no-stimulation trial)/(pulse-alone trial−no-stimulation trial)×100].
# Gunn rats [3] = test: Social interaction test; settings: for Attacking Behavior, Average / Following Behavior, Average / Sniffing Behavior/Grooming Behavior, Average: Gunn rats (j/j), 1 h after administration, 10 min recording; for Sniffing Behavior/Grooming Behavior, Average: duration of sniffing or grooming the partner
# Protocol: Eltoprazine (E1357, TCI), which is one of 5-HT1A/1B receptor agonists, was dissolved in a physiological saline solution. Only a solvent, 0.3 mg/kg of eltoprazine, or 1 mg/kg of eltoprazine was administered subcutaneously to Gunn rats at 9 to 10 weeks of age. For control, only a solvent was administered to Wistar rats as normal rats. One hour after the administration, two rats of the same type (same drug, same dose, same genetic type) were placed together in a single cage, and their behaviors were video-recorded from above for 10 minutes. The recorded video was visually analyzed, and the number of behaviors of following the partner, the attacking behavior, and the duration of sniffing or grooming the partner were measured.
# [4] = 0.3 mg/kg or 1 mg/kg subcutaneous, compared with normal rats
smiles,measurement,setting,value
CCCN(CCC)C1CCc2cccc(O)c2C1 (centres unmarked) [8OH-DPAT],Effect on number of grooming behaviors of Gunn rats (in words),[1]; 1 mg/kg subcutaneous,levels comparable to those of normal rats
same,Effect on number of rearing behaviors of Gunn rats (in words),[1]; 1 mg/kg subcutaneous,abnormal number of rearing behaviors
same,Effect on spontaneous activity amount of Gunn rats (in words),[1]; 1 mg/kg subcutaneous,levels comparable to those of normal rats
same,"Spontaneous Activity Amount, Average","[1]; Table 2, 1 mg/kg subcutaneous, 60 min home cage then 60 min open field",2681 count
same,"Number of Rearing Behaviors, Average","[1]; Table 3, 1 mg/kg subcutaneous, 60 min open field",0.3 times
same,"Number of Grooming Behaviors, Average","[1]; Table 4, 1 mg/kg subcutaneous, 60 min open field, visual inspection",5.5 count
CN1CCN(c2nc3cc(C(F)(F)F)ccc3n3cccc23)CC1 [CGS12066A],Effect on number of grooming behaviors of Gunn rats (in words),[1]; 1 mg/kg subcutaneous,did not improve
same,Effect on number of rearing behaviors of Gunn rats (in words),[1]; 1 mg/kg subcutaneous,levels comparable to those of normal rats
same,Effect on spontaneous activity amount of Gunn rats (in words),[1]; 1 mg/kg subcutaneous,levels comparable to those of normal rats
same,"Spontaneous Activity Amount, Average","[1]; Table 5, 1 mg/kg subcutaneous, 60 min open field",4030 count
same,"Number of Rearing Behaviors, Average","[1]; Table 6, 1 mg/kg subcutaneous, 60 min open field",47 count
same,"Number of Grooming Behaviors, Average","[1]; Table 7, 1 mg/kg subcutaneous, 60 min open field",19.6 count
"c1cc2c(c(N3CCNCC3)c1)OCCO2 [eltoprazine, 5-(piperazin-1-yl)-2,3-dihydro-1,4-benzodioxine]",Effect on percentage PPI of Gunn rats (in words),Gunn rats [2],tendency to improve
same,"Percentage PPI, Average","Gunn rats [2]; 120 dB pulse, Gunn rats (j/j), 1 h after administration",63.6%
same,Effect on attacking behavior of Gunn rats (in words),Gunn rats [3]; [4],levels comparable to those of normal rats
same,Effect on duration of sniffing or grooming the partner in Gunn rats (in words),Gunn rats [3]; [4],normal level
same,Effect on following behavior of Gunn rats (in words),Gunn rats [3]; [4],levels comparable to those of normal rats
same,"Attacking Behavior, Average",Gunn rats [3]; 0.3 mg/kg subcutaneous,2 count
same,"Following Behavior, Average",Gunn rats [3]; 0.3 mg/kg subcutaneous,2.16 count
same,"Attacking Behavior, Average",Gunn rats [3]; 1 mg/kg subcutaneous,0.16 count
same,"Following Behavior, Average",Gunn rats [3]; 1 mg/kg subcutaneous,3.83 count
same,"Sniffing Behavior/Grooming Behavior, Average",Gunn rats [3]; 0.3 mg/kg subcutaneous,52 count
same,"Sniffing Behavior/Grooming Behavior, Average",Gunn rats [3]; 1 mg/kg subcutaneous,41.5 count
same,Effect on number of grooming behaviors of Gunn rats (in words),[1]; 0.3 mg/kg subcutaneous,levels comparable to those of normal rats
same,Effect on number of rearing behaviors of Gunn rats (in words),[1]; 0.3 mg/kg subcutaneous,levels comparable to those of normal rats
same,Effect on spontaneous activity amount of Gunn rats (in words),[1]; 0.3 mg/kg subcutaneous,levels comparable to those of normal rats
same,"Spontaneous Activity Amount, Average","[1]; Table 2, 0.3 mg/kg subcutaneous, 60 min home cage then 60 min open field",4640 count
same,"Number of Rearing Behaviors, Average","[1]; Table 3, 0.3 mg/kg subcutaneous, 60 min open field",61.5 times
same,"Number of Grooming Behaviors, Average","[1]; Table 4, 0.3 mg/kg subcutaneous, 60 min open field, visual inspection",8.5 count
same,"Spontaneous Activity Amount, Average","[1]; Table 5, 0.3 mg/kg subcutaneous, 60 min open field",4640 count
same,"Number of Rearing Behaviors, Average","[1]; Table 6, 0.3 mg/kg subcutaneous, 60 min open field",61.5 count
same,"Number of Grooming Behaviors, Average","[1]; Table 7, 0.3 mg/kg subcutaneous, 60 min open field",8.5 count
